# According to patent publication US20060154990A1, “Use of MEK inhibitors in treating abnormal cell growth” (AGOURON PHARMACEUTICALS, INC., priority 2004, published 2006):
# “And” between values parts separate entries of the source, which are not always exact repeats. Identical values can stand only once. Marks after values point to notes of the source that are not given here.
# How the values were obtained:
# [1] = Maximum tolerated dose and lethality in mice
# [2] = system: Colo-205 human colon xenograft; experiment: Antitumor activity against human colon xenograft Colo-205
# Method: A study was also carried out to explore the potential of an intermittent dosing strategy.
# [3] = system: C26 mouse colon carcinoma; experiment: Antitumor activity against C26 mouse colon carcinoma
# [4] = Colo-205, D19, 22, 25, 28, 31, 34, 37, 40, 43, 46, 18.8 mg/kg
# [5] = Colo-205, D19, 22, 25, 28, 31, 34, 37, 40, 43, 46, 37.5 mg/kg
# [6] = Colo-205, D19, 22, 25, 28, 31, 34, 37, 40, 43, 46, 75 mg/kg
# [7] = Colo-205, D19, 22, 25, 28, 31, 34, 37, 40, 43, 46, 150 mg/kg
# [8] = Colo-205, D19, 26, 33, 40, 47, 37.5 mg/kg
# [9] = Colo-205, D19, 26, 33, 40, 47, 75 mg/kg
# [10] = Colo-205, D19, 26, 33, 40, 47, 150 mg/kg
# [11] = Colo-205, D19, 26, 33, 40, 47, 300 mg/kg (toxic)
# [12] = Colo-205, D19-23, 26-30, 33-37, 40-44, 3.1 mg/kg
# [13] = Colo-205, D19-23, 26-30, 33-37, 40-44, 6.3 mg/kg
# [14] = Colo-205, D19-23, 26-30, 33-37, 40-44, 12.5 mg/kg
# [15] = Colo-205, D19-23, 26-30, 33-37, 40-44, 25 mg/kg
# [16] = Colo-205 colon, oral 25 mg/kg once a day for 14 days
# [17] = C26, MTD 25 mg/kg/d oral 14 days
# [18] = C26, oral BID D9-22, 1.56 mg/kg/dose
# [19] = C26, oral BID D9-22, 3.125 mg/kg/dose
# [20] = C26, oral BID D9-22, 6.25 mg/kg/dose
# [21] = C26, oral BID D9-22, 12.5 mg/kg/dose
# [22] = C26, oral BID D9-22, 12.5 mg/kg/dose (toxic)
# [23] = C26, oral QD D9-22, 3.125 mg/kg/dose
# [24] = C26, oral QD D9-22, 6.25 mg/kg/dose
# [25] = C26, oral QD D9-22, 12.5 mg/kg/dose
# [26] = C26, oral QD D9-22, 25 mg/kg/dose
# [27] = C26 colon, oral 25 mg/kg once a day for 14 days
# [28] = Colon26, 25 mg/kg PO QD Days 11-24 (MTD)
# [29] = Colon26, 100 mg/kg IV QD Days 8-12, 15-19 (MTD)
compound,measurement,setting,value
"O=C(NOC[C@H](O)CO)c1ccc(F)c(F)c1Nc1ccc(I)cc1F [Compound 1, N-[(R)-2,3-dihydroxy-propoxy]-3,4-difluoro-2-(2-fluoro-4-iodo-phenylamino)-benzamide]",MTD at 14 days,"[1]; BALB/c and SCID, mouse, in vivo, po",25 mg/kg/day and 25 mg/kg
same,deaths or weight loss,"[1]; mice, 25 mg/kg oral daily for 14 days",no deaths or weight loss
same,LD10,"[1]; mice, IV regimen",100 mg/kg
same,Deaths,"[1]; mice, oral daily dosing of 50 mg/kg, sixth day of treatment",5 out of 8
same,CR (complete response),[2]; [4],0/6
same,Net Log10 kill,[2]; [4],0.1
same,Nonspecific Deaths,[2]; [4],0/6
same,PR (partial response),[2]; [4],0/6
same,T − C,[2]; [4],29.5 days
same,Tumor Free,[2]; [4],0/6
same,CR (complete response),[2]; [5],0/6
same,Net Log10 kill,[2]; [5],0.6
same,Nonspecific Deaths,[2]; [5],0/6
same,PR (partial response),[2]; [5],0/6
same,T − C,[2]; [5],37.7 days
same,Tumor Free,[2]; [5],0/6
same,CR (complete response),[2]; [6],1/6
same,Net Log10 kill,[2]; [6],0.8
same,Nonspecific Deaths,[2]; [6],0/6
same,PR (partial response),[2]; [6],2/6
same,T − C,[2]; [6],41.5 days
same,Tumor Free,[2]; [6],0/6
same,CR (complete response),[2]; [7],2/5
same,Net Log10 kill,[2]; [7],0.7
same,Nonspecific Deaths,[2]; [7],1/6^h
same,PR (partial response),[2]; [7],3/5
same,T − C,[2]; [7],39.9 days
same,Tumor Free,[2]; [7],0/5
same,CR (complete response),[2]; [8],0/6
same,Net Log10 kill,[2]; [8],−0.8
same,Nonspecific Deaths,[2]; [8],0/6
same,PR (partial response),[2]; [8],0/6
same,T − C,[2]; [8],13.1 days
same,Tumor Free,[2]; [8],0/6
same,CR (complete response),[2]; [9],0/6
same,Net Log10 kill,[2]; [9],−0.6
same,Nonspecific Deaths,[2]; [9],0/6
same,PR (partial response),[2]; [9],0/6
same,T − C,[2]; [9],17.0 days
same,Tumor Free,[2]; [9],0/6
same,CR (complete response),[2]; [10],1/6
same,Net Log10 kill,[2]; [10],0.4
same,Nonspecific Deaths,[2]; [10],0/6
same,PR (partial response),[2]; [10],1/6
same,T − C,[2]; [10],35.4 days
same,Tumor Free,[2]; [10],0/6
same,Net Log10 kill,"[2]; Colo-205, D19, 26, 33, 40, 47, 300 mg/kg",Toxic
same,CR (complete response),[2]; [11],2/3
same,Nonspecific Deaths,[2]; [11],3/6^i Toxic
same,PR (partial response),[2]; [11],1/3 Toxic
same,T − C,[2]; [11],60.3 Toxic days
same,Tumor Free,[2]; [11],1/3 Toxic
same,CR (complete response),[2]; [12],0/6
same,Net Log10 kill,[2]; [12],0.7
same,Nonspecific Deaths,[2]; [12],0/6
same,PR (partial response),[2]; [12],2/6
same,T − C,[2]; [12],37.8 days
same,Tumor Free,[2]; [12],0/6
same,CR (complete response),[2]; [13],1/6
same,Net Log10 kill,[2]; [13],1.1
same,Nonspecific Deaths,[2]; [13],0/6
same,PR (partial response),[2]; [13],4/6
same,T − C,[2]; [13],45.1 days
same,Tumor Free,[2]; [13],0/6
same,CR (complete response),[2]; [14],1/6
same,Net Log10 kill,[2]; [14],1.1
same,Nonspecific Deaths,[2]; [14],0/6
same,PR (partial response),[2]; [14],4/6
same,T − C,[2]; [14],45.9 days
same,Tumor Free,[2]; [14],0/6
same,CR (complete response),[2]; [15],6/6
same,Net Log10 kill,[2]; [15],1.8
same,Nonspecific Deaths,[2]; [15],0/6
same,PR (partial response),[2]; [15],0/6
same,T − C,[2]; [15],59.3 days
same,Tumor Free,[2]; [15],2/6
same,CR (complete response),"[2]; Colo-205, D19-46, 3.1 mg/kg",0/6
same,Net Log10 kill,"[2]; Colo-205, D19-46, 3.1 mg/kg",1.0
same,Nonspecific Deaths,"[2]; Colo-205, D19-46, 3.1 mg/kg",0/6
same,PR (partial response),"[2]; Colo-205, D19-46, 3.1 mg/kg",5/6
same,T − C,"[2]; Colo-205, D19-46, 3.1 mg/kg",45.5 days
same,Tumor Free,"[2]; Colo-205, D19-46, 3.1 mg/kg",0/6
same,CR (complete response),"[2]; Colo-205, D19-46, 6.3 mg/kg",2/6
same,Net Log10 kill,"[2]; Colo-205, D19-46, 6.3 mg/kg",1.1
same,Nonspecific Deaths,"[2]; Colo-205, D19-46, 6.3 mg/kg",0/6
same,PR (partial response),"[2]; Colo-205, D19-46, 6.3 mg/kg",4/6
same,T − C,"[2]; Colo-205, D19-46, 6.3 mg/kg",46.7 days
same,Tumor Free,"[2]; Colo-205, D19-46, 6.3 mg/kg",0/6
same,CR (complete response),"[2]; Colo-205, D19-46, 12.5 mg/kg",6/6
same,Net Log10 kill,"[2]; Colo-205, D19-46, 12.5 mg/kg",2.3
same,Nonspecific Deaths,"[2]; Colo-205, D19-46, 12.5 mg/kg",0/6
same,PR (partial response),"[2]; Colo-205, D19-46, 12.5 mg/kg",0/6
same,T − C,"[2]; Colo-205, D19-46, 12.5 mg/kg",70.1 days
same,Tumor Free,"[2]; Colo-205, D19-46, 12.5 mg/kg",0/6
same,CR (complete response),"[2]; Colo-205, D19-46, 25 mg/kg",5/6
same,Net Log10 kill,"[2]; Colo-205, D19-46, 25 mg/kg",2.0
same,Nonspecific Deaths,"[2]; Colo-205, D19-46, 25 mg/kg",0/6
same,PR (partial response),"[2]; Colo-205, D19-46, 25 mg/kg",1/6
same,T − C,"[2]; Colo-205, D19-46, 25 mg/kg",63.9 days
same,Tumor Free,"[2]; Colo-205, D19-46, 25 mg/kg",1/6
same,CR (complete responder),[2]; [16],4/10
same,PR (partial responder),[2]; [16],5/10
same,T − C,[2]; [16],10.8 days
same,Tumor Free,[2]; [16],3/10
same,animals showing complete response,[3]; [17],70%
same,animals showing either a complete or partial response,[3]; [17],100%
same,animals showing partial response,[3]; [17],30%
same,CR (complete response),[3]; [18],4 of 5 and 4/5
same,Net Log10 kill,[3]; [18],0.0
same,Non-specific Deaths,[3]; [18],0/5
same,PR (partial response),[3]; [18],1/5
same,T − C,[3]; [18],13.1 days
same,Tumor Free,[3]; [18],0/5
same,CR (complete response),[3]; [19],4/5
same,Net Log10 kill,[3]; [19],0.3
same,Non-specific Deaths,[3]; [19],0/5
same,PR (partial response),[3]; [19],1/5
same,T − C,[3]; [19],15.2 days
same,Tumor Free,[3]; [19],0/5
same,CR (complete response),[3]; [20],5/5
same,Net Log10 kill,[3]; [20],0.3
same,Non-specific Deaths,[3]; [20],0/5
same,PR (partial response),[3]; [20],0/5
same,T − C,[3]; [20],15.7 days
same,Tumor Free,[3]; [20],0/5
same,Net Log10 kill,[3]; [21],Toxic
same,Non-specific Deaths,[3]; [21],4/5^h
same,T − C,[3]; [21],Toxic
same,Tumor Free,[3]; [21],Toxic
same,CR (complete response),[3]; [22],5/5 Toxic
same,PR (partial response),[3]; [22],0/5 Toxic
same,CR (complete response),[3]; [23],1 of 5 and 1/5
same,Net Log10 kill,[3]; [23],−0.1
same,Non-specific Deaths,[3]; [23],0/5
same,PR (partial response),[3]; [23],4/5
same,T − C,[3]; [23],12.1 days
same,Tumor Free,[3]; [23],0/5
same,CR (complete response),[3]; [24],3/5
same,Net Log10 kill,[3]; [24],0.0
same,Non-specific Deaths,[3]; [24],0/5
same,PR (partial response),[3]; [24],2/5
same,T − C,[3]; [24],12.9 days
same,Tumor Free,[3]; [24],0/5
same,CR (complete response),[3]; [25],5/5
same,Net Log10 kill,[3]; [25],0.2
same,Non-specific Deaths,[3]; [25],0/5
same,PR (partial response),[3]; [25],0/5
same,T − C,[3]; [25],15.0 days
same,Tumor Free,[3]; [25],0/5
same,CR (complete response),[3]; [26],5/5
same,Net Log10 kill,[3]; [26],0.3
same,Non-specific Deaths,[3]; [26],0/5
same,PR (partial response),[3]; [26],0/5
same,T − C,[3]; [26],15.3 days
same,Tumor Free,[3]; [26],0/5
same,CR (complete responder),[3]; [27],7/10
same,PR (partial responder),[3]; [27],3/10
same,T − C,[3]; [27],15.4 days
same,Tumor Free,[3]; [27],0/10
same,Tumor growth delay,"[3]; C26 tumor, 25 mg/kg oral once a day for 14 days (MTD)",15.4 days
same,Total daily dose producing 70% complete tumor responses,"[3]; C26 tumor, oral for 14 days",25 mg/kg
same,CR,[3]; [28],10/10
same,Deaths,[3]; [28],0/10
same,Net Log Kill,[3]; [28],0.2
same,PR,[3]; [28],0/10
same,T − C,[3]; [28],12.6 days
same,CR,[3]; [29],9/10
same,Deaths,[3]; [29],1/10
same,Net Log Kill,[3]; [29],0.6
same,PR,[3]; [29],1/10
same,T − C,[3]; [29],15.8 days
